From patent US20050208496A1, “Methods of testing for bronchial asthma or chronic obstructive pulmonary disease” (Genox Research, Inc., priority 2002, published 2005)

Test system: respiratory epithelial cells

IL-13: human IL-13 (Peprotech, Inc.) added to the medium at 50 ng/mL to stimulate respiratory epithelial cells
CH25H (32363_at) expression, fold change upon IL-13 stimulation (lot 1, Day 3, IMM method): 8.9 fold
CTSC (133_at) expression, fold change upon IL-13 stimulation (lot 1, Day 3, IMM method): 4.7 fold
CXCL16 (44095_at) expression fold change (lot 1, Day 3, IMM method): 2.5 fold
DD96 (31610_at) expression, fold change upon IL-13 stimulation (lot 1, Day 3, IMM method): 11.4 fold
DDIT3 (39420_at) expression, fold change upon IL-13 stimulation (lot 1, Day 3, IMM method): 2.3 fold
DKFZP564O0823 (41402_at) expression, fold change upon IL-13 stimulation (lot 1, Day 3, IMM method): 6.7 fold
DKFZP566J091 (57197_at) expression fold change (lot 1, Day 3, IMM method): 8.2 fold
DPYD (38220_at) expression fold change upon IL-13 stimulation (lot 1, Day 3, IMM method): 7.5 fold
EMILIN-2 (51628_at) expression fold change (lot 1, Day 3, IMM method): 2.8 fold
FABP4 (38430_at) expression, fold change upon IL-13 stimulation (lot 1, Day 3, IMM method): 2.6 fold
FETUB (32620_at) expression fold change (lot 1, Day 3, IMM method): 4.1 fold
FLJ10261 (43366_at) expression fold change (lot 1, Day 3, IMM method): 8.2 fold
FLJ10261 (43963_at) expression fold change (lot 1, Day 3, IMM method): 6.6 fold
FLJ22693 (53777_at) expression fold change (lot 1, Day 3, IMM method): 2.1 fold
FUT10 (908_at) expression fold change upon IL-13 stimulation (lot 1, Day 3, IMM method): 4 fold
G1P3 (1358_s_at) expression, fold change upon IL-13 stimulation (lot 1, Day 3, IMM method): 7.1 fold
GBP5 (52615_at) expression fold change (lot 1, Day 3, IMM method): 2.5 fold
HDAC9 (37483_at) expression fold change upon IL-13 stimulation (lot 1, Day 3, IMM method): 3.1 fold
HLA-F (37420_i_at) expression, fold change upon IL-13 stimulation (lot 1, Day 3, IMM method): 3 fold
HLA-F (49203_f_at) expression fold change (lot 1, Day 3, IMM method): 3.1 fold
HS3ST1 (41556_s_at) expression fold change upon IL-13 stimulation (lot 1, Day 3, IMM method): 2.2 fold
IFI27 (425_at) expression, fold change upon IL-13 stimulation (lot 1, Day 3, IMM method): 4.5 fold
IFI27 (48864_at) expression fold change (lot 1, Day 3, IMM method): 4 fold
IFI35 (464_s_at) expression, fold change upon IL-13 stimulation (lot 1, Day 3, IMM method): 9.6 fold
IFI44 (37641_at) expression, fold change upon IL-13 stimulation (lot 1, Day 3, IMM method): 8 fold
IFIT1 (915_at) expression, fold change upon IL-13 stimulation (lot 1, Day 3, IMM method): 9.9 fold
IFIT1 (32814_at) expression, fold change upon IL-13 stimulation (lot 1, Day 3, IMM method): 7.6 fold
IFIT4 (38584_at) expression, fold change upon IL-13 stimulation (lot 1, Day 3, IMM method): 10.4 fold
IFITM1 (675_at) expression, fold change upon IL-13 stimulation (lot 1, Day 3, IMM method): 19.9 fold
IL13RA2 (1016_s_at) expression fold change upon IL-13 stimulation (lot 1, Day 3, IMM method): 5.1 fold
IL19 (47855_at) expression fold change (lot 1, Day 3, IMM method): 9.1 fold
ILIRL1 (40322_at) expression, fold change upon IL-13 stimulation (lot 1, Day 3, IMM method): 2.6 fold
IRF7 (36412_s_at) expression fold change (lot 1, Day 3, IMM method): 2.5 fold
ISG15 (1107_s_at) expression, fold change upon IL-13 stimulation (lot 1, Day 3, IMM method): 8.2 fold
ISG15 (38432_at) expression, fold change upon IL-13 stimulation (lot 1, Day 3, IMM method): 27.9 fold
ISG20 (33304_at) expression, fold change upon IL-13 stimulation (lot 1, Day 3, IMM method): 2.4 fold
KIAA0537 (33787_at) expression, fold change upon IL-13 stimulation (lot 1, Day 3, IMM method): 5.8 fold
KIAA1268 (57050_at) expression fold change (lot 1, Day 3, IMM method): 2.8 fold
KRT16 (601_s_at) expression fold change (lot 1, Day 3, IMM method): 4.6 fold
LAMP3 (37168_at) expression, fold change upon IL-13 stimulation (lot 1, Day 3, IMM method): 3.6 fold
LOC57118 (51085_at) expression fold change (lot 1, Day 3, IMM method): 3 fold
LOC64116 (40456_at) expression, fold change upon IL-13 stimulation (lot 1, Day 3, IMM method): 2.9 fold
MDA5 (51920_at) expression fold change (lot 1, Day 3, IMM method): 5.2 fold
MMP7 (668_s_at) expression, fold change upon IL-13 stimulation (lot 1, Day 3, IMM method): 2.2 fold
MX2 (879_at) expression fold change (lot 1, Day 3, IMM method): 8 fold
MXI (37014_at) expression fold change (lot 1, Day 3, IMM method): 10.6 fold
NK4 (39119_s_at) expression fold change upon IL-13 stimulation (lot 1, Day 3, IMM method): 2 fold
NOS2A (1948_f_at) expression fold change upon IL-13 stimulation (lot 1, Day 3, IMM method): 4.3 fold
OAF (39695_at) expression, fold change upon IL-13 stimulation (lot 1, Day 3, IMM method): 3.8 fold
OAS1 (38388_at) expression fold change upon IL-13 stimulation (lot 1, Day 3, IMM method): 5.5 fold
OAS1 (38389_at) expression fold change upon IL-13 stimulation (lot 1, Day 3, IMM method): 5.3 fold
OAS2 (39263_at) expression fold change upon IL-13 stimulation (lot 1, Day 3, IMM method): 2.9 fold
OSF-2 (1451_s_at) expression fold change upon IL-13 stimulation (lot 1, Day 3, IMM method): 8.8 fold
PAK2 (1560_g_at) expression, fold change upon IL-13 stimulation (lot 1, Day 3, IMM method): −2.1 fold
PLS1 (39951_at) expression fold change (lot 1, Day 3, IMM method): 2.9 fold
PLSCR1 (32775_r_at) expression fold change upon IL-13 stimulation (lot 1, Day 3, IMM method): 2.6 fold
PMCH (32005_at) expression fold change (lot 1, Day 3, IMM method): 3.3 fold
PSMB9 (38287_at) expression fold change upon IL-13 stimulation (lot 1, Day 3, IMM method): 2.3 fold
RASGRP1 (33291_at) expression fold change (lot 1, Day 3, IMM method): 2.6 fold
RIG-1 (59215_at) expression fold change (lot 1, Day 3, IMM method): 8.7 fold
SCYB10 (431_at) expression fold change upon IL-13 stimulation (lot 1, Day 3, IMM method): 3.9 fold
SCYB11 (35061_at) expression fold change upon IL-13 stimulation (lot 1, Day 3, IMM method): 7.9 fold
SECTM1 (41045_at) expression, fold change upon IL-13 stimulation (lot 1, Day 3, IMM method): 5.2 fold
SERPINB4 (1549_s_at) expression fold change (lot 1, Day 3, IMM method): 67.4 fold
SERPINB6 (34789_at) expression fold change (lot 1, Day 3, IMM method): 2.6 fold
SIAT1 (41352_at) expression fold change upon IL-13 stimulation (lot 1, Day 3, IMM method): 13.1 fold
SLC26A4, pendrin (36376_at) expression fold change (lot 1, Day 3, IMM method): 25.6 fold
SSI-1 (41592_at) expression, fold change upon IL-13 stimulation (lot 1, Day 3, IMM method): 5.8 fold
STAT1 (32860_g_at) expression fold change (lot 1, Day 3, IMM method): 2.4 fold
STAT1 (33338_at) expression fold change (lot 1, Day 3, IMM method): 5.7 fold
TGFB2 (1262_s_at) expression fold change upon IL-13 stimulation (lot 1, Day 3, IMM method): 2 fold
TGM2 (38404_at) expression fold change upon IL-13 stimulation (lot 1, Day 3, IMM method): 5 fold
TSPAN-3 (38612_at) expression, fold change upon IL-13 stimulation (lot 1, Day 3, IMM method): 2.5 fold
UBE2L6 (40505_at) expression fold change upon IL-13 stimulation (lot 1, Day 3, IMM method): 4.2 fold
UFD1L (811_at) expression, fold change upon IL-13 stimulation (lot 1, Day 3, IMM method): 2.3 fold
WARS (38121_at) expression fold change upon IL-13 stimulation (lot 1, Day 3, IMM method): 2.9 fold
diubiquitin (39959_at) expression, fold change upon IL-13 stimulation (lot 1, Day 3, IMM method): 14.4 fold
AA045020 (44676_at) expression change (lot 1, Day 7, AI): −2.9
AA053401 (56234_r_at) expression change (lot 1, Day 7, AI): −3.5
AA059445 46293_at expression change (lot 1, Day 7, AI): −3.7
AA059458 (65626_at) expression change (lot 1, Day 7, AI): −3.4
AA079839 (69289_at) expression change (lot 1, Day 7, AI): −2.2
AA151265 (60939_i_at) expression change (lot 1, Day 7, AI): −2.6
AA151265 (60940_r_at) expression change (lot 1, Day 7, AI): −5.9
AA160156 (47578_at) expression change (lot 1, Day 7, AI): −4.2
AA203423 (65699_at) expression change (lot 1, Day 7, AI): −2.6
AA369887 (87539_i_at) expression change (lot 1, Day 7, AI): −3.6
AA398155 (48999_at) expression change (lot 1, Day 7, AI): −2
AA400080 (57282_at) expression change (lot 1, Day 7, AI): −4.2
AA422178 (53747_at) expression change (lot 1, Day 7, AI): −2.8
AA428312 (83988_at) expression change (lot 1, Day 7, AI): −2
AA442232 (59109_at) expression change (lot 1, Day 7, AI): −2.3
AA456099 (59567_at) expression change (lot 1, Day 7, AI): −2.2
AA772055 46104_at expression change (lot 1, Day 7, AI): −3
AA779895 59136_at expression change (lot 1, Day 7, AI): −2.4
ABCC5 1932_at expression change (lot 1, Day 7, AI): −3.6
AF052107 38262_at expression change (lot 1, Day 7, AI): −4.1
AI050855 (64285_at) expression change (lot 1, Day 7, AI): −3.6
AI432375 (49819_at) expression change (lot 1, Day 7, AI): −4.5
AI669212 55436_at expression change (lot 1, Day 7, AI): −2.5
AI740855 (83076_at) expression change (lot 1, Day 7, AI): −2
AI761647 40191_s_at expression change (lot 1, Day 7, AI): −3
AI770116 (70124_at) expression change (lot 1, Day 7, AI): −2.3
AI798733 (64163_at) expression change (lot 1, Day 7, AI): −3.6
AI829641 (84270_at) expression change (lot 1, Day 7, AI): −3.3
AI923984 33546_at expression change (lot 1, Day 7, AI): −4.6
